Reference: article PMC8162404, “Proteomimetic surface fragments distinguish targets by function” (Chemical Science, 2020)

Tests used:
S100B = molecular target: T1, S100B (Homo sapiens, UniProt P04271); assay: Pull-down assay with immobilized protein and LSM libraries; type: binding; settings: H12 library; 1:1 binding assumed; read-out: Surface mapping KD (apparent)
T1 construct: made in house; host or cells: Escherichia coli BL21(DE3)
T1 sequence (P04271 1-92): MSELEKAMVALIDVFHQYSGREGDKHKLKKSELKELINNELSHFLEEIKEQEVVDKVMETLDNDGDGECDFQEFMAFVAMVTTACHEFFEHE
How it was run: (§1)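 Buffers were HEPES pH 7.4 with 150 mM NaCl, plus 1 mM TCEP and 1 mM CaCl2 (50 mM HEPES) for S100A4 and S100B, 1 mM TCEP for Gal-1, and no additive for RecQ-WH. Immobilized protein at 64 µM was equilibrated 30 min with the LSM sublibrary, and unbound probes were measured by LC-MS.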

Gal-1 = molecular target: T2, Gal-1 (Homo sapiens, UniProt P09382); assay: as above; type: binding; settings: H12 library; 1:1 binding assumed; read-out: Surface mapping KD (apparent)
T2 construct: made in house; host or cells: E. coli BL21(DE3)
How it was run: as §1

T2 sequence (P09382 whole entry): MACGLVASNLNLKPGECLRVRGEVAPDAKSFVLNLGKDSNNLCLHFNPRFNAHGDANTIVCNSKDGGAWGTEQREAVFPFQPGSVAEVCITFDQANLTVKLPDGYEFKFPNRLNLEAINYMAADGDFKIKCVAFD

Structure (SMILES) | Kd (S100B) | Kd (Gal-1)
NC(=O)[C@H]1CCC[C@@H]1NC(=O)[C@H]1CCC[C@@H]1NC(=O)C[C@H](CC(=O)O)NC(=O)[C@H]1CCC[C@@H]1NC(=O)[C@H]1CCC[C@@H]1NC(=O)C[C@H](Cc1c[nH]c2ccccc12)NC(=O)[C@H]1CCC[C@@H]1NC(=O)[C@H]1CCC[C@@H]1N [H12 WD] | 199 µM | 297 µM
C[C@@H](O)[C@@H](CC(=O)N[C@H]1CCC[C@@H]1C(=O)N[C@H]1CCC[C@@H]1C(N)=O)NC(=O)[C@H]1CCC[C@@H]1NC(=O)[C@H]1CCC[C@@H]1NC(=O)C[C@H](Cc1ccc(O)cc1)NC(=O)[C@H]1CCC[C@@H]1NC(=O)[C@H]1CCC[C@@H]1N [H12 YT] | 251 µM | 300 µM
NC(=O)C[C@@H](CC(=O)N[C@H]1CCC[C@@H]1C(=O)N[C@H]1CCC[C@@H]1C(N)=O)NC(=O)[C@H]1CCC[C@@H]1NC(=O)[C@H]1CCC[C@@H]1NC(=O)C[C@H](Cc1ccccc1)NC(=O)[C@H]1CCC[C@@H]1NC(=O)[C@H]1CCC[C@@H]1N [H12 FN] | 109 µM | 226 µM
N=C(N)NCCC[C@@H](CC(=O)N[C@H]1CCC[C@@H]1C(=O)N[C@H]1CCC[C@@H]1C(N)=O)NC(=O)[C@H]1CCC[C@@H]1NC(=O)[C@H]1CCC[C@@H]1NC(=O)C[C@H](Cc1ccc(O)cc1)NC(=O)[C@H]1CCC[C@@H]1NC(=O)[C@H]1CCC[C@@H]1N [H12 YR] | 65 µM | 61 µM
C[C@@H](CC(=O)N[C@H]1CCC[C@@H]1C(=O)N[C@H]1CCC[C@@H]1C(=O)N[C@H](CC(=O)N[C@H]1CCC[C@@H]1C(=O)N[C@H]1CCC[C@@H]1C(N)=O)Cc1ccccc1)NC(=O)[C@H]1CCC[C@@H]1NC(=O)[C@H]1CCC[C@@H]1N [H12 AF] | 114 µM | 428 µM
NC(=O)C[C@@H](CC(=O)N[C@H]1CCC[C@@H]1C(=O)N[C@H]1CCC[C@@H]1C(N)=O)NC(=O)[C@H]1CCC[C@@H]1NC(=O)[C@H]1CCC[C@@H]1NC(=O)C[C@H](Cc1ccc(O)cc1)NC(=O)[C@H]1CCC[C@@H]1NC(=O)[C@H]1CCC[C@@H]1N [H12 YN] | 237 µM | 181 µM
NC(=O)[C@H]1CCC[C@@H]1NC(=O)[C@H]1CCC[C@@H]1NC(=O)C[C@H](CC(=O)O)NC(=O)[C@H]1CCC[C@@H]1NC(=O)[C@H]1CCC[C@@H]1NC(=O)C[C@H](Cc1ccccc1)NC(=O)[C@H]1CCC[C@@H]1NC(=O)[C@H]1CCC[C@@H]1N [H12 FD] | 371 µM | 251 µM
CC(C)[C@@H](CC(=O)N[C@H]1CCC[C@@H]1C(=O)N[C@H]1CCC[C@@H]1C(N)=O)NC(=O)[C@H]1CCC[C@@H]1NC(=O)[C@H]1CCC[C@@H]1NC(=O)C[C@@H](NC(=O)[C@H]1CCC[C@@H]1NC(=O)[C@H]1CCC[C@@H]1N)C(C)C [H12 VV] | 277 µM | 439 µM
C[C@@H](O)[C@@H](CC(=O)N[C@H]1CCC[C@@H]1C(=O)N[C@H]1CCC[C@@H]1C(N)=O)NC(=O)[C@H]1CCC[C@@H]1NC(=O)[C@H]1CCC[C@@H]1NC(=O)C[C@H](Cc1ccccc1)NC(=O)[C@H]1CCC[C@@H]1NC(=O)[C@H]1CCC[C@@H]1N [H12 FT] | 86 µM | 254 µM
NC(=O)CC[C@@H](CC(=O)N[C@H]1CCC[C@@H]1C(=O)N[C@H]1CCC[C@@H]1C(N)=O)NC(=O)[C@H]1CCC[C@@H]1NC(=O)[C@H]1CCC[C@@H]1NC(=O)C[C@H](Cc1ccc(O)cc1)NC(=O)[C@H]1CCC[C@@H]1NC(=O)[C@H]1CCC[C@@H]1N [H12 YQ] | 222 µM | 176 µM
NC(=O)[C@H]1CCC[C@@H]1NC(=O)[C@H]1CCC[C@@H]1NC(=O)C[C@H](CCC(=O)O)NC(=O)[C@H]1CCC[C@@H]1NC(=O)[C@H]1CCC[C@@H]1NC(=O)C[C@H](Cc1c[nH]c2ccccc12)NC(=O)[C@H]1CCC[C@@H]1NC(=O)[C@H]1CCC[C@@H]1N [H12 WE] | 229 µM | 256 µM
NC(=O)CC[C@@H](CC(=O)N[C@H]1CCC[C@@H]1C(=O)N[C@H]1CCC[C@@H]1C(N)=O)NC(=O)[C@H]1CCC[C@@H]1NC(=O)[C@H]1CCC[C@@H]1NC(=O)C[C@H](Cc1c[nH]c2ccccc12)NC(=O)[C@H]1CCC[C@@H]1NC(=O)[C@H]1CCC[C@@H]1N [H12 WQ] | 53 µM | 304 µM

Second part, the compound after the results:

Kd (S100B) | Kd (Gal-1) | Structure (SMILES)
224 µM | 194 µM | CSCC[C@@H](CC(=O)N[C@H]1CCC[C@@H]1C(=O)N[C@H]1CCC[C@@H]1C(=O)N[C@@H](C)CC(=O)N[C@H]1CCC[C@@H]1C(=O)N[C@H]1CCC[C@@H]1C(N)=O)NC(=O)[C@H]1CCC[C@@H]1NC(=O)[C@H]1CCC[C@@H]1N [H12 MA]
380 µM | 303 µM | C[C@@H](CC(=O)N[C@H]1CCC[C@@H]1C(=O)N[C@H]1CCC[C@@H]1C(=O)N[C@@H](CCCCN)CC(=O)N[C@H]1CCC[C@@H]1C(=O)N[C@H]1CCC[C@@H]1C(N)=O)NC(=O)[C@H]1CCC[C@@H]1NC(=O)[C@H]1CCC[C@@H]1N [H12 AK]
193 µM | 221 µM | CC(C)[C@@H](CC(=O)N[C@H]1CCC[C@@H]1C(=O)N[C@H]1CCC[C@@H]1C(N)=O)NC(=O)[C@H]1CCC[C@@H]1NC(=O)[C@H]1CCC[C@@H]1NC(=O)C[C@H](CCCCN)NC(=O)[C@H]1CCC[C@@H]1NC(=O)[C@H]1CCC[C@@H]1N [H12 KV]
192 µM | 173 µM | CSCC[C@@H](CC(=O)N[C@H]1CCC[C@@H]1C(=O)N[C@H]1CCC[C@@H]1C(=O)N[C@@H](CCC(N)=O)CC(=O)N[C@H]1CCC[C@@H]1C(=O)N[C@H]1CCC[C@@H]1C(N)=O)NC(=O)[C@H]1CCC[C@@H]1NC(=O)[C@H]1CCC[C@@H]1N [H12 MQ]
360 µM | 485 µM | CC[C@H](C)[C@@H](CC(=O)N[C@H]1CCC[C@@H]1C(=O)N[C@H]1CCC[C@@H]1C(=O)N[C@@H](CO)CC(=O)N[C@H]1CCC[C@@H]1C(=O)N[C@H]1CCC[C@@H]1C(N)=O)NC(=O)[C@H]1CCC[C@@H]1NC(=O)[C@H]1CCC[C@@H]1N [H12 IS]
133 µM | 213 µM | C[C@@H](O)[C@@H](CC(=O)N[C@H]1CCC[C@@H]1C(=O)N[C@H]1CCC[C@@H]1C(N)=O)NC(=O)[C@H]1CCC[C@@H]1NC(=O)[C@H]1CCC[C@@H]1NC(=O)C[C@H](CCCNC(=N)N)NC(=O)[C@H]1CCC[C@@H]1NC(=O)[C@H]1CCC[C@@H]1N [H12 RT]
471 µM | 169 µM | CSCC[C@@H](CC(=O)N[C@H]1CCC[C@@H]1C(=O)N[C@H]1CCC[C@@H]1C(=O)N[C@@H](CC(=O)O)CC(=O)N[C@H]1CCC[C@@H]1C(=O)N[C@H]1CCC[C@@H]1C(N)=O)NC(=O)[C@H]1CCC[C@@H]1NC(=O)[C@H]1CCC[C@@H]1N [H12 MD]
118 µM | 234 µM | CC(C)[C@@H](CC(=O)N[C@H]1CCC[C@@H]1C(=O)N[C@H]1CCC[C@@H]1C(=O)N[C@@H](CCCNC(=N)N)CC(=O)N[C@H]1CCC[C@@H]1C(=O)N[C@H]1CCC[C@@H]1C(N)=O)NC(=O)[C@H]1CCC[C@@H]1NC(=O)[C@H]1CCC[C@@H]1N [H12 VR]
149 µM | 289 µM | NCCCC[C@@H](CC(=O)N[C@H]1CCC[C@@H]1C(=O)N[C@H]1CCC[C@@H]1C(=O)N[C@@H](CC(=O)O)CC(=O)N[C@H]1CCC[C@@H]1C(=O)N[C@H]1CCC[C@@H]1C(N)=O)NC(=O)[C@H]1CCC[C@@H]1NC(=O)[C@H]1CCC[C@@H]1N [H12 KD]
224 µM | 298 µM | NCCCC[C@@H](CC(=O)N[C@H]1CCC[C@@H]1C(=O)N[C@H]1CCC[C@@H]1C(=O)N[C@@H](CO)CC(=O)N[C@H]1CCC[C@@H]1C(=O)N[C@H]1CCC[C@@H]1C(N)=O)NC(=O)[C@H]1CCC[C@@H]1NC(=O)[C@H]1CCC[C@@H]1N [H12 KS]
417 µM | 180 µM | CSCC[C@@H](CC(=O)N[C@H]1CCC[C@@H]1C(=O)N[C@H]1CCC[C@@H]1C(=O)N[C@@H](CCC(=O)O)CC(=O)N[C@H]1CCC[C@@H]1C(=O)N[C@H]1CCC[C@@H]1C(N)=O)NC(=O)[C@H]1CCC[C@@H]1NC(=O)[C@H]1CCC[C@@H]1N [H12 ME]
254 µM | 469 µM | CC[C@H](C)[C@@H](CC(=O)N[C@H]1CCC[C@@H]1C(=O)N[C@H]1CCC[C@@H]1C(=O)N[C@@H](C)CC(=O)N[C@H]1CCC[C@@H]1C(=O)N[C@H]1CCC[C@@H]1C(N)=O)NC(=O)[C@H]1CCC[C@@H]1NC(=O)[C@H]1CCC[C@@H]1N [H12 IA]
310 µM | 268 µM | NC(=O)[C@H]1CCC[C@@H]1NC(=O)[C@H]1CCC[C@@H]1NC(=O)C[C@H](CO)NC(=O)[C@H]1CCC[C@@H]1NC(=O)[C@H]1CCC[C@@H]1NC(=O)C[C@H](Cc1ccccc1)NC(=O)[C@H]1CCC[C@@H]1NC(=O)[C@H]1CCC[C@@H]1N [H12 FS]
215 µM | 224 µM | CSCC[C@@H](CC(=O)N[C@H]1CCC[C@@H]1C(=O)N[C@H]1CCC[C@@H]1C(=O)N[C@@H](CO)CC(=O)N[C@H]1CCC[C@@H]1C(=O)N[C@H]1CCC[C@@H]1C(N)=O)NC(=O)[C@H]1CCC[C@@H]1NC(=O)[C@H]1CCC[C@@H]1N [H12 MS]
264 µM | 423 µM | CC(C)C[C@@H](CC(=O)N[C@H]1CCC[C@@H]1C(=O)N[C@H]1CCC[C@@H]1C(=O)N[C@@H](CC(N)=O)CC(=O)N[C@H]1CCC[C@@H]1C(=O)N[C@H]1CCC[C@@H]1C(N)=O)NC(=O)[C@H]1CCC[C@@H]1NC(=O)[C@H]1CCC[C@@H]1N [H12 LN]
104 µM | 208 µM | NC(=O)CC[C@@H](CC(=O)N[C@H]1CCC[C@@H]1C(=O)N[C@H]1CCC[C@@H]1C(N)=O)NC(=O)[C@H]1CCC[C@@H]1NC(=O)[C@H]1CCC[C@@H]1NC(=O)C[C@H](Cc1ccccc1)NC(=O)[C@H]1CCC[C@@H]1NC(=O)[C@H]1CCC[C@@H]1N [H12 FQ]
